No end group written: not given here.
How the values were obtained:
[1] = target: gallocin gene promoter (PgllA) in S. gallolyticus subsp. gallolyticus UCN34 Δgsp pTCVΩPgllA-gfp (receptor BlpH); test: Gallocin induction reporter gene assay (PgllA-gfp); format: cell-based, Streptococcus gallolyticus subsp. gallolyticus; settings: reporter strain UCN34 Δgsp pTCVΩPgllA-gfp; maximum GFP fluorescence normalized with OD600; 37°C; triplicate, three trials, sigmoidal curve fit
Excerpt: We first aimed at determining the active form of GSP in S. gallolyticus subsp. gallolyticus strain UCN34. GSP is derived from a 45-residue precursor encoded by gsp and is predicted to be processed to a 24-mer peptide by cleavage of the amino-terminal leader sequence after a double glycine motif and then exported to the extracellular environment by the BlpAB transporter. However, GSP was previously isolated as a 21-mer peptide from S. gallolyticus subsp. gallolyticus TX20005 ([10]). We first confirmed by mass spectrometry analysis that GSP isolated from culture supernatants of strain UCN34 was strictly identical to the 21-mer peptide previously purified from strain TX20005 (Fig. S1). […] Therefore, we chemically synthesized GSP 21-mer and GSP 24-mer peptides to test their efficiency in activating gallocin gene transcription. To do so, we used a reporter S. gallolyticus subsp. gallolyticus strain, UCN34, in which the endogenous gsp gene has been deleted and which contains a plasmid expressing gfp under the control of the gallocin gene promoter (PgllA) ([33]).
Fluorescence and absorbance measurements were recorded using a Biotek Synergy H1 microplate reader using Gen5 data analysis software (v. 3.03). Biological assays were performed in triplicate per trial. EC50s from three trials were calculated using GraphPad Prism software (v. 7.0) using a sigmoidal curve fit.
Stock solutions of peptides (1 mM) were prepared in dimethyl sulfoxide (DMSO) and stored at 4°C in sealed glass vials. […] Black polystyrene 96-well microtiter plates (Costar) were used for the GFP cell-based reporter assays.
Peptide stock solutions were serially diluted with DMSO in either 1:2, 1:3, or 1:5 dilutions, and 2 μl of the diluted solution was added to each of the wells in a black 96-well microtiter plate. Each concentration was tested in triplicate, with DMSO only used as a negative control. Screening of peptide analogs was conducted using the S. gallolyticus subsp. gallolyticus UCN34 Δgsp pTCVΩPgllA-gfp strain. An overnight culture was used to make a fresh 2-ml culture without EM using a 1:10 dilution on the day of the experiment and incubated in a CO2 incubator (37°C with 5% CO2) for 3 to 4 h to reach mid-log to late log phase of growth (OD600 = 0.6 to 0.9). A final 1:10 dilution was made on a larger scale (20 ml) without EM and used for the assay, where 198 μl diluted bacterial culture was added to each well of the microtiter plate containing peptides. Plates were incubated at 37°C with shaking at 200 rpm. Fluorescence (excitation, 485 nm; emission, 516 nm) and optical density at 600 nm (OD600) readings were recorded for each well using a plate reader. Measurements were taken 1 h after inoculation and were recorded every 20 to 30 min for up to 3 h to capture the maximum fluorescence signal. The maximum fluorescence signal was normalized with the OD600 value and used to construct dose curves to determine the EC50.

[2] = S. mutans ΔcomC washed cells in saline solution; settings: S. mutans SMCC3 (ΔcomC), 37°C, up to 30 min
[3] = washed UCN34 Δgsp cells in sterile saline solution (0.9% [wt/vol] NaCl); settings: S. gallolyticus subsp. gallolyticus UCN34 Δgsp, 37°C, up to 30 min
[4] = washed UCN34 ΔsepM cells in sterile saline solution (0.9% [wt/vol] NaCl); settings: S. gallolyticus subsp. gallolyticus UCN34 ΔsepM, 37°C, up to 30 min

| Sequence | EC50 [1] | other results |
| --- | --- | --- |
| DFLIVGPFDALKKNHKPTKHA [GSP W10A] | > 1000 nM |  |
| DFLIVGPFDWLKKNHKPT [GSP-des-K19-A21] | > 1000 nM |  |
| DFLIVGPFDWLKKNHKPTAHA [GSP K19A] | 106 nM |  |
| DFLIVGPFDWLKKNHKPTK [GSP-des-H20-A21] | > 1000 nM |  |
| DFLIVGPFDWLKKNHKPTKH [GSP-des-A21] | > 1000 nM |  |
| DFLIVGPFDWLKKNHKPTKHA |  | cleaved bond [2]: L3-I4, 30 min; cleaved bond [3]: L3-I4, 30 min |
| KNKDFLIVGPFDWLKKNHKPTKHA |  | cleaved bond [4]: L3-I4, 30 min; not cleaved [4]: Degradation of KNK-GSP to GSP was not observed (30 min); cleaved bond [3]: L3-I4, 30 min; not cleaved [3]: Degradation of KNK-GSP to GSP was not observed (30 min) |
| LKKNHKPTKHA [GSP-des-D1-W10] | > 1000 nM |  |

Source: paper PMC8545107 (mBio, 2021)
